How the values were obtained:
[1] = Tolerability in mice: body weight, clinical signs, spleen weight, serum chemistry; details: BALB/c mice
Description: Treatment groups (n=5) were injected intravenously at a 10 mg/kg dose with a dosing schedule of Q1d×3 (every day for three consecutive days). Necropsy was performed at 24 h after the last dose. Body weights and clinical signs were monitored during the course of the study. Liver and spleen were harvested.

[2] = tested on: microRNA-122; test: De-repression of downstream mRNAs of microRNA-122 in mouse liver by CRN-containing antimir; format: in vivo, mouse (BALB/c)
Description: The CRN-containing antimir CRN-Antimir-122-8a was synthesized by the methods of this invention. MicroRNA-122 is an miRNA shown to be liver-specific and involved in lipid metabolism and possibly hepatitis C virus replication. MicroRNA-122 regulates various downstream mRNAs. CRN-Antimir-122-8a is 16-mer oligonucleotide complementary to the 5′ end of microRNA-122 that can silence microRNA-122 and de-repress its downstream targets.
Liver and spleen were harvested.
The end points determined were expression of downstream genes AldoA (Aldolase A), P4H4 (Prolyl 4-hydroxylase gene), and SLC7A1 (Solute carrier family 7). Negative control was a mismatched Antimir-122 sequence.

[3] = 8-week old BALB/c mice, 10 mg/kg intravenously Q1d×3, necropsy 24 h after last dose

crnm5CsdCsdAscrnTscrnTsdGscrnTscrnm5CsdAscrnm5CsdAsdCsdTscrnm5Cscrnm5CsdA (antisense CCATTGTCACACTCCA; CRN nucleotides, phosphorothioate linkages; (1)..(16) Phosphorothioate linkage between nucleotides; modified_base (1)..(1) Conformationally restricted 5′-methyl nucleomonomer; modified_base (2)..(3) deoxy-nucleotide; modified_base (4)..(5) Conformationally restricted nucleomonomer; modified_base (6)..(6) deoxy-nucleotide; modified_base (7)..(7) Conformationally restricted nucleomonomer; modified_base (8)..(8) Conformationally restricted 5′-) [CRN-Antimir-122-8a, 16-mer oligonucleotide complementary to the 5′ end of microRNA-122; CRN/deoxy nucleotides with phosphorthioate linkages]
alterations in liver and kidney enzymes ([1]; 10 mg/kg intravenously Q1d×3): No alterations
body weight loss after dosing ([1]; 10 mg/kg intravenously Q1d×3): No body weight loss
other serum chemistry parameters ([1]; 10 mg/kg intravenously Q1d×3): within expected normal levels
tolerability ([1]; 10 mg/kg intravenously Q1d×3): well tolerated
spleen weights relative to buffer control ([1]; 10 mg/kg intravenously Q1d×3, necropsy 24 h after last dose): unaltered
de-repression in liver AldoA mRNA relative to buffer control [2, 3]: Up to 2.5 fold
de-repression in liver P4H4 mRNA relative to buffer control [2, 3]: Up to 1.5 fold
de-repression in liver SLC7A1 mRNA relative to buffer control [2, 3]: Up to 1.3 fold
de-repression of downstream genes ALDOA, SLC7A, P4H4 in the mouse model ([2]; mouse model, result in words): demonstrated de-repression
